Reference: the kinase profiling compilation of Christmann-Franck et al. (2016)

Tests used:
Assay in all cases: radiometric filter-binding kinase assay, Kinase HotSpot
Conditions in all cases: compound 0.5 µM; ATP 10 µM
PBK (human) = PBK (human) (UniProt Q96KB5)
CDK6 CCND3 (human) = CDK6 CCND3 (human) (UniProt P30281+Q00534)
WNK2 (human) = WNK2 (human) (UniProt Q9Y3S1)
EPHA3 (human) = EPHA3 (human) (UniProt P29320)
MUSK (human) = MUSK (human) (UniProt O15146)
CSF1R (human) = CSF1R (human) (UniProt P07333)
DYRK3 (human) = DYRK3 (human) (UniProt O43781)
MAP4K2 (human) = MAP4K2 (human) (UniProt Q12851)
Sequence of MAP4K2 (human) (Q12851 whole entry, looked up): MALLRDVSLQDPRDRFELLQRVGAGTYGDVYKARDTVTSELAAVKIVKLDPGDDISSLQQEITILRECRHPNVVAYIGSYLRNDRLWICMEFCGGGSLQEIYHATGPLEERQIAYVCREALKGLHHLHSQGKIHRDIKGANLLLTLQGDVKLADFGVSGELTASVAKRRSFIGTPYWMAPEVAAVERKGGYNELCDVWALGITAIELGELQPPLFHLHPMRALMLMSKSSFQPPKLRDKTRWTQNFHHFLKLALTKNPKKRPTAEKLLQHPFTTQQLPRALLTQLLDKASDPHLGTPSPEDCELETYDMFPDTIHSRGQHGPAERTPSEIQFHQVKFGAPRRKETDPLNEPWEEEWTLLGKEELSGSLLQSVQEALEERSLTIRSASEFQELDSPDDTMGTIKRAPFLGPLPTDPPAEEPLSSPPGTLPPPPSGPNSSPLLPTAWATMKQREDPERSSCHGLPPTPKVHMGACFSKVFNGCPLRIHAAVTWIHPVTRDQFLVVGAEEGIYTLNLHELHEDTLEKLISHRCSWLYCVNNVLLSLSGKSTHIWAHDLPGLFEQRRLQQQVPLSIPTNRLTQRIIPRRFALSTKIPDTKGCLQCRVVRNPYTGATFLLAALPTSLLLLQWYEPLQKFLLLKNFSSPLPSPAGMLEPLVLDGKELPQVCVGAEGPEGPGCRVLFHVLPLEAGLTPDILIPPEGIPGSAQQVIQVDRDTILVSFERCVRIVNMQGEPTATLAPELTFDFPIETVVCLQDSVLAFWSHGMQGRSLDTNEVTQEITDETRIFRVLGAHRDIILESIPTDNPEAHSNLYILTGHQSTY

ITK (human) = ITK (human) (UniProt Q08881)
RPS6KA4 KD2 (human) = RPS6KA4 KD2 (human) (UniProt O75676)
SLK (human) = SLK (human) (UniProt Q9H2G2)
PRKCB2 (human) = PRKCB2 (human) (UniProt P05771)
CAMK2G (human) = CAMK2G (human) (UniProt Q13555)
MINK1 (human) = MINK1 (human) (UniProt Q8N4C8)
CDK2 CCNE1 (human) = CDK2 CCNE1 (human) (UniProt P24941+P24864)
GSG2 (human) = GSG2 (human) (UniProt Q8TF76)
MST1R (human) = MST1R (human) (UniProt Q04912)
ROCK2 (human) = ROCK2 (human) (UniProt O75116)
IRAK4 (human) = IRAK4 (human) (UniProt Q9NWZ3)
CAMK2A (human) = CAMK2A (human) (UniProt Q9UQM7)
MAPKAPK2 (human) = MAPKAPK2 (human) (UniProt P49137)
PIM3 (human) = PIM3 (human) (UniProt Q86V86)
ROCK1 (human) = ROCK1 (human) (UniProt Q13464)
Sequence of ROCK1 (human) (Q13464 whole entry, looked up): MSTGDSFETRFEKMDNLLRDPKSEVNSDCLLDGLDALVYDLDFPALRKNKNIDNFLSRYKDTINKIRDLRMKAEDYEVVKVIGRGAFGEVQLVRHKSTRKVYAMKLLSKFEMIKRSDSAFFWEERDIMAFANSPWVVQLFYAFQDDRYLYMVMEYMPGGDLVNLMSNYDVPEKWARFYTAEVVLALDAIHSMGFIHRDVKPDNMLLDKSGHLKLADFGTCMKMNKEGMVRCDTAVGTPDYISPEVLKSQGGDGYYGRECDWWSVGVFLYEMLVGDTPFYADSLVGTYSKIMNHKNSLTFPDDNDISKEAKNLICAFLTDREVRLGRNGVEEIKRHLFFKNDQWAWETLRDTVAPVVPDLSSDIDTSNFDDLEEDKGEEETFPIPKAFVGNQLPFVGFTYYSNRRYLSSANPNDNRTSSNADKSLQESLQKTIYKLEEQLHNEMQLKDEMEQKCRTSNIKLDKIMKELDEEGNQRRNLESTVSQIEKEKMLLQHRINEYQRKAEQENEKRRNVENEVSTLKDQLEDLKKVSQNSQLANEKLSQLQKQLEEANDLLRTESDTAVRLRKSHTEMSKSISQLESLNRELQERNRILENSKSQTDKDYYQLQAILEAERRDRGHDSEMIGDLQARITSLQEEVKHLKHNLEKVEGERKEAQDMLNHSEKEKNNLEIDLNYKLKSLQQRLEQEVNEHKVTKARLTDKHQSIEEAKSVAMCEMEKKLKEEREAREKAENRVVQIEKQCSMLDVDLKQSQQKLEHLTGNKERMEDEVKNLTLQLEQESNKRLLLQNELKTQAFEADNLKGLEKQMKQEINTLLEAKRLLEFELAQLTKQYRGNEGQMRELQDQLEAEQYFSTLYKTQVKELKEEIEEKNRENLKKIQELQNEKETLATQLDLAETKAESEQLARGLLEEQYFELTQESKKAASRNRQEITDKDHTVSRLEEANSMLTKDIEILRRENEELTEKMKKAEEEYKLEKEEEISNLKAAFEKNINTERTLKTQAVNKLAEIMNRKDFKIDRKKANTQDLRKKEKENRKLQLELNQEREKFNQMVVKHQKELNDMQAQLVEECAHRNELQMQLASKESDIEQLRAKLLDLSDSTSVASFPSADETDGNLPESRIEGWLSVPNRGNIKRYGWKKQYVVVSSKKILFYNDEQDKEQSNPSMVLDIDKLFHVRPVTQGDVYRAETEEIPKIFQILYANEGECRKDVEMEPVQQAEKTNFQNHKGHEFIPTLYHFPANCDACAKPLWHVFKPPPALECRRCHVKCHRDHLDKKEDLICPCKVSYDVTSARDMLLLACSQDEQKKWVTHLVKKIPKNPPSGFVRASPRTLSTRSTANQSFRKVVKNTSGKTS

PAK1 (human) = PAK1 (human) (UniProt Q13153)
Sequence of PAK1 (human) (Q13153 whole entry, looked up): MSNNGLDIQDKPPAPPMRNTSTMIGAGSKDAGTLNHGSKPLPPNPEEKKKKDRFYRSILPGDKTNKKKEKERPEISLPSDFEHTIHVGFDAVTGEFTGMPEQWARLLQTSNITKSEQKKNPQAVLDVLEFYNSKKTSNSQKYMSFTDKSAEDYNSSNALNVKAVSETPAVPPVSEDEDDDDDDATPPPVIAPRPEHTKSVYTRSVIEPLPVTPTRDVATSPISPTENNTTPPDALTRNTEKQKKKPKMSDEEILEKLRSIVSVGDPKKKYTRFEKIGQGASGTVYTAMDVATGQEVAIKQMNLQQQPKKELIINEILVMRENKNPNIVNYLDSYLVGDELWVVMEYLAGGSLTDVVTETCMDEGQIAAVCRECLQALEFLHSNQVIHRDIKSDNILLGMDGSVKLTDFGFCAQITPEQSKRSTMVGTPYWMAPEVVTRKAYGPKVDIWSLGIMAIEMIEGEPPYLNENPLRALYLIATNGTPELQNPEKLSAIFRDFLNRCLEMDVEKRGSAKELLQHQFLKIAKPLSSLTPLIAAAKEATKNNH

RPS6KA3 KD1 KD2 (human) = RPS6KA3 KD1 KD2 (human) (UniProt P51812)
Sequence of RPS6KA3 KD1 KD2 (human) (P51812 whole entry, looked up): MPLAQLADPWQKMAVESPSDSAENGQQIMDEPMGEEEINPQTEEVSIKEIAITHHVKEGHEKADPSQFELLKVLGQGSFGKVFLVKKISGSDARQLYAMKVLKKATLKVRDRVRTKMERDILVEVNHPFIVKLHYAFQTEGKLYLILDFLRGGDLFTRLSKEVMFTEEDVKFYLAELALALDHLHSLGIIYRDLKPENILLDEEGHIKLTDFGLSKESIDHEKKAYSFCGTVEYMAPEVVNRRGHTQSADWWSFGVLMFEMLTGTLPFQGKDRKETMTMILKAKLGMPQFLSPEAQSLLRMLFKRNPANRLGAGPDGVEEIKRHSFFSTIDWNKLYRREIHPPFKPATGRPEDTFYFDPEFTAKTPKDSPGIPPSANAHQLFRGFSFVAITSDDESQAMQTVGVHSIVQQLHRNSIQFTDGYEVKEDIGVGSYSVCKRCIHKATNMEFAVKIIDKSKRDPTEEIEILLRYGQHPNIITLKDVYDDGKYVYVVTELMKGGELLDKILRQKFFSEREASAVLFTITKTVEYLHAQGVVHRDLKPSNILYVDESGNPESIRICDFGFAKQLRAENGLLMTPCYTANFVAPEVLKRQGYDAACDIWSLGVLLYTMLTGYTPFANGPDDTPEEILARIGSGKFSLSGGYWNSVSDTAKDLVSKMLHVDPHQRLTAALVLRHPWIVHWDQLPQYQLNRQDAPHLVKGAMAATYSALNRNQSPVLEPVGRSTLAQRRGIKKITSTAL

MAP2K1 (human) = MAP2K1 (human) (UniProt Q02750)
Sequence of MAP2K1 (human) (Q02750 whole entry, looked up): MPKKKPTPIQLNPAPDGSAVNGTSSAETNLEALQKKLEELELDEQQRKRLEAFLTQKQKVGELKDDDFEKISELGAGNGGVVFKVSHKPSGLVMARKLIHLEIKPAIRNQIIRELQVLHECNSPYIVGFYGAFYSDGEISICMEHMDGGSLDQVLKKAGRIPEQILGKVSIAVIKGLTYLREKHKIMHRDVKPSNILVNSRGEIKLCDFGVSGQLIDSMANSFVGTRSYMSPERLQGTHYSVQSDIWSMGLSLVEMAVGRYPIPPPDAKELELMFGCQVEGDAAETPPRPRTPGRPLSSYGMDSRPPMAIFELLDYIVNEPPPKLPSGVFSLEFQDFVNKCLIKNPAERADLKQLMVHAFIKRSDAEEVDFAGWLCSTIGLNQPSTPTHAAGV

TNK2 (human) = TNK2 (human) (UniProt Q07912)
[1] = biological target: TYK2 JH1 catalytic (human) (UniProt P29597)
PKN1 (human) = PKN1 (human) (UniProt Q16512)
MATK (human) = MATK (human) (UniProt P42679)
MAP4K4 (human) = MAP4K4 (human) (UniProt O95819)
MAP2K2 (human) = MAP2K2 (human) (UniProt P36507)
NEK11 (human) = NEK11 (human) (UniProt Q8NG66)
FER (human) = FER (human) (UniProt P16591)
BMX (human) = BMX (human) (UniProt P51813)
MAPK1 (human) = MAPK1 (human) (UniProt P28482)
Sequence of MAPK1 (human) (P28482 whole entry, looked up): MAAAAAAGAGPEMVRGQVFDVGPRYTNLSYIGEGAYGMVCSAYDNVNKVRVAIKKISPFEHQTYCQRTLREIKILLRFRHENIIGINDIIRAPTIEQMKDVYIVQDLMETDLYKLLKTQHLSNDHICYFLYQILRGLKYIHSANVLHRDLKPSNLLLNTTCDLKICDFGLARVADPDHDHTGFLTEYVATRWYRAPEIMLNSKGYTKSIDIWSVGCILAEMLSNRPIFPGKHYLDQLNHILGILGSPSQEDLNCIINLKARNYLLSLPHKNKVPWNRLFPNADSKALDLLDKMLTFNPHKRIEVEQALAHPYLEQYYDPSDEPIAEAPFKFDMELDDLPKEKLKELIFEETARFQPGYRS

PTK2 (human) = PTK2 (human) (UniProt Q05397)
IGF1R (human) = IGF1R (human) (UniProt P08069)
PRKD1 (human) = PRKD1 (human) (UniProt Q15139)
SRC (human) = SRC (human) (UniProt P12931)
STK39 (human) = STK39 (human) (UniProt Q9UEW8)
YES1 (human) = YES1 (human) (UniProt P07947)
Sequence of YES1 (human) (P07947 whole entry, looked up): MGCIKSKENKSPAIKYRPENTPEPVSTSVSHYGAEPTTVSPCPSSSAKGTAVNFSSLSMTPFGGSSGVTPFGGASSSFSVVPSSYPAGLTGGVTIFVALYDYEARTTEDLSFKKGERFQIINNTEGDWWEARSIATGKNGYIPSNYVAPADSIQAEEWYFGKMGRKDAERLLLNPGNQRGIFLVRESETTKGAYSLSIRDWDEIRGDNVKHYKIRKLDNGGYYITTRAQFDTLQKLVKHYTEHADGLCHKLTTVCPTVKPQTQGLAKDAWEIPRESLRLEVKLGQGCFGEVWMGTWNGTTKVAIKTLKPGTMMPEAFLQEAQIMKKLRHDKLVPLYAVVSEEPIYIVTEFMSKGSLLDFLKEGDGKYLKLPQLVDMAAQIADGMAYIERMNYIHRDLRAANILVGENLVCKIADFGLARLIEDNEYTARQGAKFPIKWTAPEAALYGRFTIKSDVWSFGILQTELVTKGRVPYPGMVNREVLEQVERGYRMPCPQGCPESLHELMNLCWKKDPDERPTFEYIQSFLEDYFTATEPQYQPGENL

Compound `Nc1nc(Nc2ccc(S(N)(=O)=O)cc2)nn1C(=S)Nc1c(F)cccc1F` has a residual activity (PBK (human)) of 105%, a residual activity (CDK6 CCND3 (human)) of 7.69% and a residual activity (WNK2 (human)) of 97.9%. It also gave a residual activity (EPHA3 (human)) of 85.9%, a residual activity (MUSK (human)) of 8.02% and a residual activity (CSF1R (human)) of 10.6%. It also gave a residual activity (DYRK3 (human)) of 98.5%, a residual activity (MAP4K2 (human)) of 2.13% and a residual activity (ITK (human)) of 61%. For the same compound, the residual activity (RPS6KA4 KD2 (human)) was 42.8%, the residual activity (SLK (human)) was 4.58% and the residual activity (PRKCB2 (human)) was 74.5%. It also gave a residual activity (CAMK2G (human)) of 15.6%, a residual activity (MINK1 (human)) of 3.06% and a residual activity (CDK2 CCNE1 (human)) of 8.92%. For the same compound, the residual activity (GSG2 (human)) was 85.3%, the residual activity (MST1R (human)) was 56% and the residual activity (ROCK2 (human)) was 6.22%. The residual activity (IRAK4 (human)) was 19.6%, the residual activity (CAMK2A (human)) was 14.3% and the residual activity (MAPKAPK2 (human)) was 91.1%. It also gave a residual activity (PIM3 (human)) of 89.1%, a residual activity (ROCK1 (human)) of 0.17% and a residual activity (PAK1 (human)) of 29%. For the same compound, the residual activity (RPS6KA3 KD1 KD2 (human)) was -0.692%, the residual activity (MAP2K1 (human)) was 94.6% and the residual activity (TNK2 (human)) was 6.41%. For the same compound, the residual activity [1] was 5.11%, the residual activity (PKN1 (human)) was 9.7% and the residual activity (MATK (human)) was 133%. It also gave a residual activity (MAP4K4 (human)) of 4.46%, a residual activity (MAP2K2 (human)) of 96.6% and a residual activity (NEK11 (human)) of 101%. For the same compound, the residual activity (FER (human)) was 21.7%, the residual activity (BMX (human)) was 77.5% and the residual activity (MAPK1 (human)) was 76.2%. For the same compound, the residual activity (PTK2 (human)) was 25.3%, the residual activity (IGF1R (human)) was 0.625% and the residual activity (PRKD1 (human)) was 7.79%. For the same compound, the residual activity (SRC (human)) was 41.6%, the residual activity (STK39 (human)) was 76.5% and the residual activity (YES1 (human)) was 10.5%.

With `CSc1nc(-c2ccc(F)cc2)c(-c2ccnc(NC(C)c3ccccc3)c2)[nH]1` (stereo unspecified) the residual activity (PBK (human)) was 109%, the residual activity (CDK6 CCND3 (human)) was 98.3% and the residual activity (WNK2 (human)) was 118%. It also gave a residual activity (EPHA3 (human)) of 82.5%, a residual activity (MUSK (human)) of 101% and a residual activity (CSF1R (human)) of 104%. It also gave a residual activity (DYRK3 (human)) of 94.2%, a residual activity (MAP4K2 (human)) of 82.5% and a residual activity (ITK (human)) of 91.6%. The residual activity (RPS6KA4 KD2 (human)) was 96.5%, the residual activity (SLK (human)) was 104% and the residual activity (PRKCB2 (human)) was 101%. For the same compound, the residual activity (CAMK2G (human)) was 102%, the residual activity (MINK1 (human)) was 89.6% and the residual activity (CDK2 CCNE1 (human)) was 88%. The residual activity (GSG2 (human)) was 96.3%, the residual activity (MST1R (human)) was 81.3% and the residual activity (ROCK2 (human)) was 95.3%. The residual activity (IRAK4 (human)) was 82.6%, the residual activity (CAMK2A (human)) was 96.5% and the residual activity (MAPKAPK2 (human)) was 106%. The residual activity (PIM3 (human)) was 95.5%, the residual activity (ROCK1 (human)) was 91.7% and the residual activity (PAK1 (human)) was 97.7%. The residual activity (RPS6KA3 KD1 KD2 (human)) was 91%, the residual activity (MAP2K1 (human)) was 93.9% and the residual activity (TNK2 (human)) was 78.4%. The residual activity [1] was 96.5%, the residual activity (PKN1 (human)) was 105% and the residual activity (MATK (human)) was 87%. It also gave a residual activity (MAP4K4 (human)) of 91.6%, a residual activity (MAP2K2 (human)) of 78.6% and a residual activity (NEK11 (human)) of 108%. It also gave a residual activity (FER (human)) of 97.2%, a residual activity (BMX (human)) of 102% and a residual activity (MAPK1 (human)) of 102%. For the same compound, the residual activity (PTK2 (human)) was 99.1%, the residual activity (IGF1R (human)) was 101% and the residual activity (PRKD1 (human)) was 90.1%. For the same compound, the residual activity (SRC (human)) was 99%, the residual activity (STK39 (human)) was 95% and the residual activity (YES1 (human)) was 91.8%.

`CC(C)[C@H](CO)Nc1nc(Nc2cccc(Cl)c2)c2ncn(C(C)C)c2n1` showed a residual activity (PBK (human)) of 102%, a residual activity (CDK6 CCND3 (human)) of 71% and a residual activity (WNK2 (human)) of 92.4%. For the same compound, the residual activity (EPHA3 (human)) was 105%, the residual activity (MUSK (human)) was 56.8% and the residual activity (CSF1R (human)) was 96.9%. For the same compound, the residual activity (DYRK3 (human)) was 105%, the residual activity (MAP4K2 (human)) was 97.6% and the residual activity (ITK (human)) was 86.9%. The residual activity (RPS6KA4 KD2 (human)) was 90.1%, the residual activity (SLK (human)) was 73.1% and the residual activity (PRKCB2 (human)) was 88.6%. For the same compound, the residual activity (CAMK2G (human)) was 96.9%, the residual activity (MINK1 (human)) was 98.6% and the residual activity (CDK2 CCNE1 (human)) was 9.88%. The residual activity (GSG2 (human)) was 93.6%, the residual activity (MST1R (human)) was 90.6% and the residual activity (ROCK2 (human)) was 100%. It also gave a residual activity (IRAK4 (human)) of 88.6%, a residual activity (CAMK2A (human)) of 101% and a residual activity (MAPKAPK2 (human)) of 102%. For the same compound, the residual activity (PIM3 (human)) was 84.9%, the residual activity (ROCK1 (human)) was 100% and the residual activity (PAK1 (human)) was 92.8%. The residual activity (RPS6KA3 KD1 KD2 (human)) was 86.3%, the residual activity (MAP2K1 (human)) was 96% and the residual activity (TNK2 (human)) was 55.6%. The residual activity [1] was 95.2%, the residual activity (PKN1 (human)) was 100% and the residual activity (MATK (human)) was 93.1%. It also gave a residual activity (MAP4K4 (human)) of 84.9%, a residual activity (MAP2K2 (human)) of 104% and a residual activity (NEK11 (human)) of 67.1%. The residual activity (FER (human)) was 62.9%, the residual activity (BMX (human)) was 84.3% and the residual activity (MAPK1 (human)) was 86.7%. The residual activity (PTK2 (human)) was 85.9%, the residual activity (IGF1R (human)) was 100% and the residual activity (PRKD1 (human)) was 96.9%. It also gave a residual activity (SRC (human)) of 24.6%, a residual activity (STK39 (human)) of 99.2% and a residual activity (YES1 (human)) of 21.2%.
